Here are results for eleven compounds from patent US5830863A, “Neurokinin A antagonists” (priority 1996, dated 1998).

As usually defined, the IC50 is the concentration that gives 50% inhibition.

Each structure is given as a SMILES string. Read-outs that look alike come from different tables or passages of the source. Residues, ends and D or L forms follow the SMILES beside them. Some results are limits rather than exact numbers.

The target of experiment [1] is T1, neurokinin A (NKA) receptor (NK-2) (Mesocricetus auratus, UniProt P51144).
T1 construct: displace I125 labeled NKA from hamster urinary bladder; from tissue; host or cells: hamster urinary bladder (membranes in A1, chopped tissue in A4)
T1 sequence (P51144 1-384): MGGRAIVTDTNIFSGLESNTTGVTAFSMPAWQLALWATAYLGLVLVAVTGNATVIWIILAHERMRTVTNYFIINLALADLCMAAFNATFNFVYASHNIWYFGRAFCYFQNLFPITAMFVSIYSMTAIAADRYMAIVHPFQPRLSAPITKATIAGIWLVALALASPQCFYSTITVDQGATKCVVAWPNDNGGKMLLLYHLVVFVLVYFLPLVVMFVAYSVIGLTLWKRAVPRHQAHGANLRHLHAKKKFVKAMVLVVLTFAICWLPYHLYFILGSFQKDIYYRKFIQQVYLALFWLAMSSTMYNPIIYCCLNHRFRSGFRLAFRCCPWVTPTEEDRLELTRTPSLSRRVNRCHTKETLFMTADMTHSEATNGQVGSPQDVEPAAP
Nature of the experiment: displacement of I125 labeled NKA from hamster urinary bladder membranes. The class given is binding. The source says:
The abscissa (x-axis) logarithmically indicates the concentration in nanomoles of agonist of antagonist of the neurokinin A (NKA) receptor. The ordinate (Y-axis) indicates the observed specific binding for each tested agonist or antagonist measured as a percentage of maximum specific binding.
Agonists tested were NKA and fragments of NKA consisting of the third to tenth (NKA(3-10)) amino acids and the fourth to tenth (NKA(4-10)) amino acids. Values are MEAN±S.E.M. of 6-12 experiments. IC50 values estimated graphically from 50% inhibition point.
Urinary bladders from several hamsters were pooled, minced, and homogenized in 50 mM TRIS-HCl (pH 7.4) containing 120 mM NaCl and 5 mM KCl at 4° C. and centrifuged at 48,000×g for 15 minutes. The pellet was resuspended for 30 minutes in 50 mM TRIS-HCl (pH 7.4) containing 10 mM EDTA and 300 mM KCl at 4° C. The suspension was centrifuged as above and the pellet was washed two times in plain 50 mM TRIS-HCl (pH 7.4) and centrifuged similarly. The tissue was then resuspended in incubation buffer and an aliquot (approximately 3-5 mg tissue) was added to each assay tube to commence the assay. The assay tubes contained incubation buffer consisting of 50 mM TRIS-HCl (pH 7.4), 0.02% BSA, 40 μg/ml bacitracin, 4 μg/ml chymostatin, 4 μg/ml leupeptin, 2 mM MnCl2, 0.1 nM ^125 iodohistidyl^1 -neurokinin A (Amersham Corp.), and concentrations of the title compounds or standards ranging from 0.03 nM to 100 μM. The assay was allowed to proceed to equilibrium for 120 min at room temperature. After this time, the contents of each tube was rapidly filtered over Whatman GF/B filters presoaked in 0.5% BSA and the filters were rapidly washed two times with ice-cold plain 50 mM TRIS-HCl (pH 7.4). Filter-bound radioactivity was quantitated in a gamma counter. Specific binding (maximum) was defined as the difference between binding in the presence and absence of 1 μM unlabeled neurokinin A. Competition of iodinated neurokinin A binding by test compounds or standards was expressed as a percentage of this maximum competition.
Values given indicate the concentration in nanomoles of antagonist to reach the IC50 of the neurokinin A (NKA) receptor. SKLKB82#3 represents a cloned NK-2 receptor cell line; the sample is prepared from the scraped cell pellet for assay as earlier described for the hamster urinary bladder preparations. NK-1 represents a substance P receptor preparation from rat salivary gland; receptors are prepared as earlier described for the hamster urinary bladder preparations. Blank spaces indicate compound has not been tested in that particular assay.

In experiment [2] the target is T2, NK-1 (substance P receptor) (Rattus norvegicus, UniProt P14600).
T2 construct: substance P receptor preparation from rat salivary gland; from tissue; host or cells: rat salivary gland
In words: NK-1 substance P receptor preparation from rat salivary gland, binding. The protocol: (§1) Values given indicate the concentration in nanomoles of antagonist to reach the IC50 of the neurokinin A (NKA) receptor. SKLKB82#3 represents a cloned NK-2 receptor cell line; the sample is prepared from the scraped cell pellet for assay as earlier described for the hamster urinary bladder preparations. NK-1 represents a substance P receptor preparation from rat salivary gland; receptors are prepared as earlier described for the hamster urinary bladder preparations.

Experiment [3] has as its target T3, cloned NK-2 receptor (SKLKB82#3 cell line) (Bos taurus, UniProt P05363).
T3 construct: expressed in transfected cells; host or cells: SKLKB82#3 cell line (scraped cell pellet)
T3 sequence (P05363 1-384): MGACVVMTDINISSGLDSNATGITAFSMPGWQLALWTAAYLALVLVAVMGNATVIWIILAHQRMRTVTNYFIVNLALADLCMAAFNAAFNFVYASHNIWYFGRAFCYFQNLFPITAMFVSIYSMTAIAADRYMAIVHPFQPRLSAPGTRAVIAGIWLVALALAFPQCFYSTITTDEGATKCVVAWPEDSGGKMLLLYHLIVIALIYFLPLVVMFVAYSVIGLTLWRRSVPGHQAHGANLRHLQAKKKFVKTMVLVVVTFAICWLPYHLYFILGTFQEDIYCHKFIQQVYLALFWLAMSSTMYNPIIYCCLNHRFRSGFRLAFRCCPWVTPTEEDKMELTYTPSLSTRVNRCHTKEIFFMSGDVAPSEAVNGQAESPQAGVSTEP
In words: I125 NKA binding to SKLKB82#3 cloned NK-2 receptor cell line. The method, then:
as §1

Setting [4] is: cloned NK-2 receptor cell line, scraped cell pellet, read-out: SKLKB82#3 IC50.

T2 sequence (P14600 whole entry): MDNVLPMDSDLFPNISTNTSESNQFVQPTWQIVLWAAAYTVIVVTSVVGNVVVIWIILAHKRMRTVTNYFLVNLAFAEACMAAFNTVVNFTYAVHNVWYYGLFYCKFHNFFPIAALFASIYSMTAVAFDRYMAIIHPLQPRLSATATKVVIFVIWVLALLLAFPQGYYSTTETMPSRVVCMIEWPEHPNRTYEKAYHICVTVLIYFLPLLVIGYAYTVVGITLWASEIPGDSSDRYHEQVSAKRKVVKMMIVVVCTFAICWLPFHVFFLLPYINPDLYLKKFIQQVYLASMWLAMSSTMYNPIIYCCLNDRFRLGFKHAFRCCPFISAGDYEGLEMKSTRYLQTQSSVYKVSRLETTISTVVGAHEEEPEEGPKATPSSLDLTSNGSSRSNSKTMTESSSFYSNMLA

In the case of `CSCC[C@H](NC[C@H](CC(C)C)NC(=O)CNC(=O)[C@@H](NC(=O)[C@H](Cc1ccccc1)NC(=O)[C@H](CO)NC(=O)[C@@H](N)CC(=O)O)C(C)C)C(N)=O` [MDL 29,646, Asp--Ser--Phe--Val--Gly--Leu(.psi.(CH2 NH))Met--NH2] (HELM PEPTIDE1{D.S.F.V.G.[CSCC[C@H](NC[C@H](CC(C)C)N[*:1])C(N)=O]}$$$$V2.0), the half-maximal inhibitory concentration (IC50) is 50 ± 5 nM in experiment [1] and above 10000 nM in experiment [2]. `CC(C)C[C@H](NC(=O)[C@H](CC(C)C)NC(=O)CNC(=O)[C@H](C(C)C)N(C)C[C@H](Cc1ccccc1)NC(=O)[C@H](CO)NC(=O)[C@@H](N)CC(=O)O)C(N)=O` [MDL 29,678, Asp--Ser--Phe[.psi.(CH2 NCH3)]Val--Gly--Leu--Leu--NH2] (HELM PEPTIDE1{D.S.[CC(C)[C@@H](C(=O)[*:2])N(C)C[C@H](Cc1ccccc1)N[*:1]].G.L.L.[am]}$$$$V2.0): the concentration for half-maximal inhibition (IC50) in experiment [1] was above 10000 nM. Still for that read-out and setting: with `CC(C)C[C@H](NC(=O)[C@H](CC(C)C)NC(=O)CN(C)C[C@@H](NC(=O)[C@H](Cc1ccccc1)NC(=O)[C@H](CO)NC(=O)[C@@H](N)CC(=O)O)C(C)C)C(N)=O` [MDL 29,712, Asp--Ser--Phe--Val[.psi.(CH2 NCH3)]Gly--Leu--Leu--NH2] (HELM PEPTIDE1{D.S.F.[CC(C)[C@@H](CN(C)CC(=O)[*:2])N[*:1]].L.L.[am]}$$$$V2.0) the figure was above 5000 nM. Take `CCN(C[C@H](CC(C)C)NC(=O)CNC(=O)[C@@H](NC(=O)[C@H](Cc1ccccc1)NC(=O)[C@H](CO)NC(=O)[C@@H](N)CC(=O)O)C(C)C)[C@@H](CC(C)C)C(N)=O` [MDL 29,716, Asp-Ser-Phe-Val-Gly-Leu(.PSI.(CH2 NCH2 CH3))Leu-NH2] (HELM PEPTIDE1{D.S.F.V.G.[CCN(C[C@H](CC(C)C)N[*:1])[C@@H](CC(C)C)C(N)=O]}$$$$V2.0): the IC50 was 257 ± 30 nM in experiment [1] and 4730 ± 393 nM in experiment [3] (setting [4]). For `CC(C)C[C@H](NC(=O)[C@H](CC(C)C)NC(=O)CNC[C@@H](NC(=O)[C@H](Cc1ccccc1)NC(=O)[C@H](CO)NC(=O)[C@@H](N)CC(=O)O)C(C)C)C(N)=O` [MDL 29,882, Asp--Ser--Phe--Val[.psi.(CH2 NH)]Gly--Leu--Leu--NH2], the IC50 in experiment [1] is above 5000 nM; in experiment [2], above 100000 nM.

For the compound `CC(C)C[C@@H](CN[C@@H](Cc1ccccc1)C(N)=O)NC(=O)CNC(=O)[C@@H](NC(=O)[C@H](Cc1ccccc1)NC(=O)[C@H](CO)NC(=O)[C@@H](N)CC(=O)O)C(C)C` [MDL 101,382, Asp--Ser--Phe--Val--Gly--Leu(.psi.(CH2 NH))Phe--NH2] (HELM PEPTIDE1{D.S.F.V.G.[CC(C)C[C@@H](CN[C@@H](Cc1ccccc1)C(N)=O)N[*:1]]}$$$$V2.0), the IC50 in experiment [1] is 5 nM; in experiment [3], 200 nM. Turning to `CC(C)C[C@H](NC(=O)[C@H](CC(C)C)NC(=O)CNC(=O)[C@@H](NC(=O)[C@H](Cc1ccccc1)NC(=O)[C@H](CO)NCCCC(=O)O)C(C)C)C(N)=O` [MDL 101,905, Suc[.psi.(CH2 NH)]Ser--Phe--Val--Gly--Leu--Leu--NH2] (HELM PEPTIDE1{[O=C(O)CCCN[C@@H](CO)C(=O)[*:2]].F.V.G.L.L.[am]}$$$$V2.0), the IC50 in experiment [1] is 2000 nM. Same read-out and setting: the figure for `CC(C)C[C@H](NC(=O)[C@H](CC(C)C)N(C)CCNC(=O)[C@@H](NC(=O)[C@H](Cc1ccccc1)NC(=O)[C@H](CO)NC(=O)[C@@H](N)CC(=O)O)C(C)C)C(N)=O` [MDL 102,369, Asp--Ser--Phe--Val--Gly[.psi.CH2 NCH3)]Leu--Leu--NH2] (HELM PEPTIDE1{D.S.F.V.[CC(C)C[C@@H](C(=O)[*:2])N(C)CCN[*:1]].L.[am]}$$$$V2.0) is above 10000 nM; for `CC(C)C[C@@H](CN[C@@H](CC(C)C)C(N)=O)NC(=O)CCNC(=O)[C@@H](NC(=O)[C@H](Cc1ccccc1)NC(=O)[C@H](CO)NC(=O)[C@@H](N)CC(=O)O)C(C)C` [MDL 102,500, Asp-Ser-Phe-Val-β-Ala-Leu(.PSI.(CH2 NH))Leu-NH2] (HELM PEPTIDE1{D.S.F.V.[bAla].[CC(C)C[C@@H](CN[C@@H](CC(C)C)C(N)=O)N[*:1]]}$$$$V2.0) it is 19 ± 3 nM.

As to `CC(C)C[C@@H](CO)NC[C@H](CC(C)C)NC(=O)CNC(=O)[C@@H](NC(=O)[C@H](Cc1ccccc1)NC(=O)[C@H](CO)NC(=O)[C@@H](N)CC(=O)O)C(C)C` [MDL 102,678, Asp--Ser--Phe--Val--Gly--Leu[.psi.(CH2 NH)]Leu--CH2 OH] (HELM PEPTIDE1{D.S.F.V.G.[CC(C)C[C@@H](CO)NC[C@H](CC(C)C)N[*:1]]}$$$$V2.0), the IC50 in experiment [1] and in experiment [3] (setting [4]) was above 10000 nM each time.

Turning to `CCCN(C[C@H](CC(C)C)NC(=O)CNC(=O)[C@@H](NC(=O)[C@H](Cc1ccccc1)NC(=O)[C@H](CO)NC(=O)[C@@H](N)CC(=O)O)C(C)C)[C@@H](CC(C)C)C(N)=O` [MDL 102,863, Asp-Ser-Phe-Val-Gly-Leu(.PSI.(CH2 N(CH2)2 CH3))Leu-NH2] (HELM PEPTIDE1{D.S.F.V.G.[CCCN(C[C@H](CC(C)C)N[*:1])[C@@H](CC(C)C)C(N)=O]}$$$$V2.0), the IC50 in experiment [1] was 103 ± 13 nM.
